How the values were obtained:
[1] = Phenyl salicylate solubility in conditioned (neon lamp) vs unconditioned acetone at room temperature (22° C.); type: physicochemical; details: equilibrated about 20 hours
Procedure: Acetone (about 1 ml) was pipetted into small glass test tubes and stoppers placed in the tube. Tubes were placed under a neon lam; (about 8 m/cm^2) in an otherwise dark room for about 1-5 hours at about 28° C. ambient temperature. Tubes were also placed simultaneously in an incubator at 28° C. for about 1.5 hours.
Phenyl solicylate (about 3.50 grams) was added to each tube leaving a layer undissolved on the bottom of each tube. The solutions were allowed to equilibrate (about 20 hours). Solution was filtered over the crystals and 0.500 ml pipetted into fresh tubes. After the acetone evaporated, dry weights of phenyl solicylate per ml dissolved in conditioned and unconditioned acetone were determined.

[2] = Sucrose solubility in conditioned (sodium lamp) vs control water at room temperature (22° C.); type: physicochemical
Procedure: Beaker “II” was placed under another sodium lamp 12 as like Beaker “KK”; and Beaker “JJ” was placed in the same incubator as Beaker “LL”. […] Specifically, Beaker “GG” was placed under another sodium lamp 12 as like Beaker “KK” and Beaker “II”; and Becker “HH” was placed into the same incubator as Beaker “LL” and “II”.

Compound | Average amount dissolved in unconditioned acetone ([1]; acetone kept in incubator at 28° C.) | Average amount dissolved in conditioned acetone ([1]; acetone under neon lamp) | Weight (dry sucrose weight per 100 ml solution) ([2]; GG, water under sodium lamp one hour, 23.5° C.) | Weight (dry sucrose weight per 100 ml solution) ([2]; HH, control water 1 hour, 23° C.) | Weight (dry sucrose weight per 100 ml solution) ([2]; II, water under sodium lamp two hours, 23.5° C.) | Weight (dry sucrose weight per 100 ml solution) ([2]; JJ, control water 2 hours, 23.5° C.) | Weight (dry sucrose weight per 100 ml solution) ([2]; KK, water under Na lamp three hours, 23.5° C.) | Weight (dry sucrose weight per 100 ml solution) ([2]; LL, control water 3 hours, 23.5° C.) | more sucrose dissolved by conditioned water than by untreated control water ([2]; two hours exposure of water to sodium lamp)
O=C(Oc1ccccc1)c1ccccc1O [phenyl salicylate] | 0.68 g/mL | 0.78 g/mL |  |  |  |  |  |  | 
OC[C@H]1O[C@@](CO)(O[C@H]2O[C@H](CO)[C@@H](O)[C@H](O)[C@H]2O)[C@@H](O)[C@@H]1O [Sucrose] |  |  | 49 g/100 ml | 49 g/100 ml | 47 g/100 ml | 44 g/100 ml | 46 g/100 ml | 49 g/100 ml | about 7%

Source: patent US20060132952A1, “Enhanced data storage and retrieval devices and systems and methods for utilizing same” (priority 2002, published 2006)
